Patent US9499550B2 (BRISTOL-MYERS SQUIBB COMPANY, priority 2012, dated 2016)
Like-named read-outs stand apart in the source and are kept apart here.

What was measured:
[1] = test system: HCV genotype 1a (H77 strain) replicon in HUH-7 cells; experiment: HCV replicon luciferase reporter assay, genotype 1a; assay type: cell-based; conditions: Hepatitis C virus, Huh-7, 72 h, HCV genotype 1a replicon luciferase, 3 days incubation
How it was run: (§1)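 Replicon inhibition for both genotypes was measured as Renilla luciferase signal (EnduRen, 7.5 μM final, 2 h) after 3-day, 37° C exposure of replicon-bearing HUH-7 cells in 4% FCS DMEM, 0.5% DMSO. The 1b construct carries S1179I; the 1a H77 construct carries P1496L and S2204I. Twenty-point, 3-fold dilutions were fitted four-parametrically for EC50, and CC50 was taken from multiplexed Cell Titer-Blue.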

[2] = test system: HCV genotype 1b (Con1) replicon in HUH-7 cells; experiment: HCV replicon luciferase reporter assay, genotype 1b; assay type: cell-based; conditions: Hepatitis C virus, Huh-7, 72 h, HCV genotype 1b replicon luciferase, 3 days incubation
How it was run: as §1

SMILES: CC[C@@H]1C[C@@H](C)CC/C=C\[C@@H]2C[C@@]2(C(=O)NS(=O)(=O)C2CC2)NC(=O)[C@@H]2C[C@@H](Oc3nccc4c5c(ccc34)OCCO5)CN2C(=O)[C@H]1NC(=O)OC(C)(C)C(C)(F)F [Compound 5335, 3,3-difluoro-2-methylbutan-2-yl((2R,6S,7R,9S,13aS,14aR,16aS,Z)-14a-((cyclopropylsulfonyl)carbamoyl)-2-((2,3-dihydro-[1,4]dioxino[2,3-f]isoquinolin-7-yl)oxy)-7-ethyl-9-methyl-5,16-dioxo-1,2,3,5,6,7,8,9,10,11,13a,14,14a,15,16,16a-hexadecahydrocyclopropa[e]pyrrolo[1,2-a][1,4]diazacyclopentadecin-6-yl)carbamate]
- EC50 ([1]; read-out: LE_1a (EC50)): 6.5 nM
- EC50 ([1]; read-out: LE_1a (EC50, range)): 4.82 to 103 nM
- EC50 ([2]; read-out: LE_1b (EC50)): 2.03 nM
- EC50 ([2]; read-out: LE_1b (EC50, range)): < 5.46 nM

SMILES: CC[C@@H]1C[C@H](C)CC/C=C\[C@@H]2C[C@@]2(C(=O)NS(=O)(=O)C2CC2)NC(=O)[C@@H]2C[C@@H](Oc3nccc4c5c(ccc34)OCCO5)CN2C(=O)[C@H]1NC(=O)OC(C)(C)C(C)(F)F [Compound 5336, 3,3-difluoro-2-methylbutan-2-yl((2R,6S,7R,9R,13aS,14aR,16aS,Z)-14a-((cyclopropylsulfonyl)carbamoyl)-2-((2,3-dihydro-[1,4]dioxino[2,3-f]isoquinolin-7-yl)oxy)-7-ethyl-9-methyl-5,16-dioxo-1,2,3,5,6,7,8,9,10,11,13a,14,14a,15,16,16a-hexadecahydrocyclopropa[e]pyrrolo[1,2-a][1,4]diazacyclopentadecin-6-yl)carbamate]
- EC50 ([1]; read-out: LE_1a (EC50, range)): < 5.46 nM
- EC50 ([2]; read-out: LE_1b (EC50, range)): < 5.46 nM

SMILES: CC[C@@H]1C[C@@H](C)CC/C=C\[C@@H]2C[C@@]2(C(=O)NS(=O)(=O)C2CC2)NC(=O)[C@@H]2C[C@@H](Oc3nccc4c5c(ccc34)OCCO5)CN2C(=O)[C@H]1NC(=O)OC(C)(C)C(F)(F)F [Compound 5337, 1,1,1-trifluoro-2-methylpropan-2-yl((2R,6S,7R,9S,13aS,14aR,16aS,Z)-14a-((cyclopropylsulfonyl)carbamoyl)-2-((2,3-dihydro-[1,4]dioxino[2,3-f]isoquinolin-7-yl)oxy)-7-ethyl-9-methyl-5,16-dioxo-1,2,3,5,6,7,8,9,10,11,13a,14,14a,15,16,16a-hexadecahydrocyclopropa[e]pyrrolo[1,2-a][1,4]diazacyclopentadecin-6-yl)carbamate]
- EC50 ([1]; read-out: LE_1a (EC50, range)): 4.82 to 103 nM
- EC50 ([2]; read-out: LE_1b (EC50, range)): < 5.46 nM

SMILES: CC[C@@H]1C[C@H](C)CC/C=C\[C@@H]2C[C@@]2(C(=O)NS(=O)(=O)C2CC2)NC(=O)[C@@H]2C[C@@H](Oc3nccc4c5c(ccc34)OCCO5)CN2C(=O)[C@H]1NC(=O)OC(C)(C)C(F)(F)F [Compound 5338, 1,1,1-trifluoro-2-methylpropan-2-yl((2R,6S,7R,9R,13aS,14aR,16aS,Z)-14a-((cyclopropylsulfonyl)carbamoyl)-2-((2,3-dihydro-[1,4]dioxino[2,3-f]isoquinolin-7-yl)oxy)-7-ethyl-9-methyl-5,16-dioxo-1,2,3,5,6,7,8,9,10,11,13a,14,14a,15,16,16a-hexadecahydrocyclopropa[e]pyrrolo[1,2-a][1,4]diazacyclopentadecin-6-yl)carbamate]
- EC50 ([1]; read-out: LE_1a (EC50, range)): < 5.46 nM
- EC50 ([2]; read-out: LE_1b (EC50, range)): < 5.46 nM

SMILES: CC[C@@H]1C[C@@H](C)CC/C=C\[C@@H]2C[C@@]2(C(=O)NS(=O)(=O)C2(C)CC2)NC(=O)[C@@H]2C[C@@H](Oc3nccc4c5c(ccc34)OCCO5)CN2C(=O)[C@H]1NC(=O)OC(C)(C)C [Compound 5339, tert-butyl ((2R,6S,7R,9S,13aS,14aR,16aS,Z)-2-((2,3-dihydro-[1,4]dioxino[2,3-f]isoquinolin-7-yl)oxy)-7-ethyl-9-methyl-14a-(((1-methylcyclopropyl)sulfonyl)carbamoyl)-5,16-dioxo-1,2,3,5,6,7,8,9,10,11,13a,14,14a,15,16,16a-hexadecahydrocyclopropa[e]pyrrolo[1,2-a][1,4]diazacyclopentadecin-6-yl)carbamate]
- EC50 ([1]; read-out: LE_1a (EC50, range)): 4.82 to 103 nM
- EC50 ([2]; read-out: LE_1b (EC50, range)): < 5.46 nM

SMILES: CC[C@@H]1C[C@H](C)CC/C=C\[C@@H]2C[C@@]2(C(=O)NS(=O)(=O)C2(C)CC2)NC(=O)[C@@H]2C[C@@H](Oc3nccc4c5c(ccc34)OCCO5)CN2C(=O)[C@H]1NC(=O)OC(C)(C)C [Compound 5340, tert-butyl ((2R,6S,7R,9R,13aS,14aR,16aS,Z)-2-((2,3-dihydro-[1,4]dioxino[2,3-f]isoquinolin-7-yl)oxy)-7-ethyl-9-methyl-14a-(((1-methylcyclopropyl)sulfonyl)carbamoyl)-5,16-dioxo-1,2,3,5,6,7,8,9,10,11,13a,14,14a,15,16,16a-hexadecahydrocyclopropa[e]pyrrolo[1,2-a][1,4]diazacyclopentadecin-6-yl)carbamate]
- EC50 ([1]; read-out: LE_1a (EC50, range)): < 5.46 nM
- EC50 ([2]; read-out: LE_1b (EC50, range)): < 5.46 nM

SMILES: CC[C@@H]1C[C@H](C)CC/C=C\[C@@H]2C[C@@]2(C(=O)NS(=O)(=O)C2CC2)NC(=O)[C@@H]2C[C@@H](Oc3nccc4c5c(ccc34)OCCO5)CN2C(=O)[C@H]1NC(=O)OC(C)(C)C [Compound 5341, tert-butyl ((2R,6S,7R,9R,13aS,14aR,16aS,Z)-14a-((cyclopropylsulfonyl)carbamoyl)-2-((2,3-dihydro-[1,4]dioxino[2,3-f]isoquinolin-7-yl)oxy)-7-ethyl-9-methyl-5,16-dioxo-1,2,3,5,6,7,8,9,10,11,13a,14,14a,15,16,16a-hexadecahydrocyclopropa[e]pyrrolo[1,2-a][1,4]diazacyclopentadecin-6-yl)carbamate]
- EC50 ([1]; read-out: LE_1a (EC50, range)): < 5.46 nM
- EC50 ([2]; read-out: LE_1b (EC50, range)): < 5.46 nM

SMILES: C[C@@H]1CC/C=C\[C@@H]2C[C@@]2(C(=O)NS(=O)(=O)C2(CF)CC2)NC(=O)[C@@H]2C[C@@H](Oc3nccc4c5c(ccc34)OCCO5)CN2C(=O)[C@@H](NC(=O)OC(C)(C)C(C)(F)F)[C@H](C)C1 [Compound 5342]
- EC50 ([1]; GETYPE1A, read-out: LE_1a (EC50, range)): < 5.46 nM
- EC50 ([2]; GETYPE1B, read-out: LE_1b (EC50, range)): < 5.46 nM

SMILES: COc1ccc2c(O[C@@H]3C[C@H]4C(=O)N[C@]5(C(=O)NS(=O)(=O)C6(C)CC6)C[C@H]5/C=C\CC[C@@H](C)C[C@@H](C)[C@H](NC(=O)OC(C)(C)C)C(=O)N4C3)nc(-c3ccc(OC(C)C)cc3)c(OC)c2c1 [Compound 5344, tert-butyl ((2R,6S,7R,9R,13aS,14aR,16aS,Z)-2-((3-(4-isopropoxyphenyl)-4,6-dimethoxyisoquinolin-1-yl)oxy)-7,9-dimethyl-14a-(((1-methylcyclopropyl)sulfonyl)carbamoyl)-5,16-dioxo-1,2,3,5,6,7,8,9,10,11,13a,14,14a,15,16,16a-hexadecahydrocyclopropa[e]pyrrolo[1,2-a][1,4]diazacyclopentadecin-6-yl)carbamate]
- EC50 ([1]; read-out: LE_1a (EC50, range)): < 5.46 nM
- EC50 ([2]; read-out: LE_1b (EC50, range)): < 5.46 nM

SMILES: COc1ccc2c(O[C@@H]3C[C@H]4C(=O)N[C@]5(C(=O)NS(=O)(=O)C6(C)CC6)C[C@H]5/C=C\CC[C@H](C)C[C@@H](C)[C@H](NC(=O)OC(C)(C)C(C)(F)F)C(=O)N4C3)nc(-c3ccc(OC(C)C)cc3)c(OC)c2c1 [Compound 5345, 3,3-difluoro-2-methylbutan-2-yl((2R,6S,7R,9S,13aS,14aR,16aS,Z)-2-((3-(4-isopropoxyphenyl)-4,6-dimethoxyisoquinolin-1-yl)oxy)-7,9-dimethyl-14a-(((1-methylcyclopropyl)sulfonyl)carbamoyl)-5,16-dioxo-1,2,3,5,6,7,8,9,10,11,13a,14,14a,15,16,16a-hexadecahydrocyclopropa[e]pyrrolo[1,2-a][1,4]diazacyclopentadecin-6-yl)carbamate]
- EC50 ([1]; read-out: LE_1a (EC50, range)): 4.82 to 103 nM
- EC50 ([2]; read-out: LE_1b (EC50, range)): < 5.46 nM

SMILES: COc1ccc2c(O[C@@H]3C[C@H]4C(=O)N[C@]5(C(=O)NS(=O)(=O)C6(C)CC6)C[C@H]5/C=C\CC[C@@H](C)C[C@@H](C)[C@H](NC(=O)OC(C)(C)C(C)(F)F)C(=O)N4C3)nc(-c3ccc(OC(C)C)cc3)c(OC)c2c1 [Compound 5346, 3,3-difluoro-2-methylbutan-2-yl((2R,6S,7R,9R,13aS,14aR,16aS,Z)-2-((3-(4-isopropoxyphenyl)-4,6-dimethoxyisoquinolin-1-yl)oxy)-7,9-dimethyl-14a-(((1-methylcyclopropyl)sulfonyl)carbamoyl)-5,16-dioxo-1,2,3,5,6,7,8,9,10,11,13a,14,14a,15,16,16a-hexadecahydrocyclopropa[e]pyrrolo[1,2-a][1,4]diazacyclopentadecin-6-yl)carbamate]
- EC50 ([1]; read-out: LE_1a (EC50, range)): < 5.46 nM
- EC50 ([2]; read-out: LE_1b (EC50, range)): < 5.46 nM

SMILES: COc1ccc2c(O[C@@H]3C[C@H]4C(=O)N[C@]5(C(=O)NS(=O)(=O)C6(C)CC6)C[C@H]5/C=C\CC[C@@H](C)C[C@@H](C)[C@H](NC(=O)OC(C)(C)C(F)(F)F)C(=O)N4C3)nc(-c3ccc(OC(C)C)cc3)c(OC)c2c1 [Compound 5348, 1,1,1-trifluoro-2-methylpropan-2-yl((2R,6S,7R,9R,13aS,14aR,16aS,Z)-2-((3-(4-isopropoxyphenyl)-4,6-dimethoxyisoquinolin-1-yl)oxy)-7,9-dimethyl-14a-(((1-methylcyclopropyl)sulfonyl)carbamoyl)-5,16-dioxo-1,2,3,5,6,7,8,9,10,11,13a,14,14a,15,16,16a-hexadecahydrocyclopropa[e]pyrrolo[1,2-a][1,4]diazacyclopentadecin-6-yl)carbamate]
- EC50 ([1]; read-out: LE_1a (EC50, range)): < 5.46 nM
- EC50 ([2]; read-out: LE_1b (EC50, range)): < 5.46 nM
